# Measured values published in patent publication US8048910B2, “Combination of R,R-glycopyrrolate, rolipram, and budesonide for the treatment of inflammatory diseases” (Meda Pharma GmbH & Co. KG, priority 2005, dated 2011).
# Experiments:
# M3 muscarinic receptors = M3 muscarinic receptors (Homo sapiens, UniProt P20309); settings: kinetics studies; cited from earlier work
# M1-M3 receptors = settings: cited from earlier work
# [1] = system: allergen-induced airway eosinophilia; settings: Brown Norway rats; administered directly into the lungs; cited from earlier work
# [2] = dog, in vivo, 15 mg/kg; cited from earlier work
# [3] = system: LPS-induced TNFα release from human monocytes; assay: LPS-stimulated TNFα release from human monocytes (ELISA); type: cell-based
# Protocol: The influence of monocompounds and their various combinations, also in three-in-one on TNF secretion was investigated by using human monocytes. The study was approved by our institutional Ethics Committee according to the International Declarations of Helsinki and Tokyo.
# Peripheral blood mononuclear cells (PBMCs) were isolated from heparinized blood samples of healthy donors by density gradient centrifugation. An equal volume of Hanks buffer (Invitrogen, Heidelberg, Germany) was added to heparinized whole blood samples. […] A visible band containing PBMCs was transferred to a fresh tube and washed twice with Hanks-buffer. […] 5% CO2 overnight. Monocytes were isolated from other cells by adherence method, non-adherent cells were removed by changing the medium.
# Cells were re-suspended at 10^6 cells/ml and incubated in 500 μl volumes in 24-well tissue culture plates (Falcon Becton Dickinson Labware, Heidelberg, Germany) at 37° C., 5% CO2. After pre-incubation with test substances (0.5 μl/500 μl medium) for 30 min, cells were stimulated with lipopolysaccharide (LPS) (Sigma, Deisenhofen, Germany) (1 μg/ml). After 24 h of incubation, cells were sedimented by centrifugation. The supernatants were harvested and kept frozen at −80° C. until protein determination.
# Cytokine measurements in culture supernatants were done by sandwich ELISA using matched antibody pairs (BD Pharmingen, Heidelberg, Germany). ELISA plates (Maxisorb, Nunc, Wiesbaden, Germany) were coated overnight with anti-cytokine monoclonal antibody (mAb) in 0.1M carbonate buffer, pH 9.5. After being washed, plates were blocked with Assay Diluent (BD Pharmingen, Heidelberg, Germany) for 1 h and washed again. Appropriately diluted supernatant samples and standards were distributed in duplicates and the plates were incubated for 2 h at room temperature. Plates were washed, incubated for 1 h with working detector (biotinylated anti-cytokine antibody and Avidin-horseradish peroxidase conjugate) (BD Pharmingen, Heidelberg, Germany). After washing, substrate (TMB and hydrogen peroxide) was added. The reaction was stopped by adding of 1M H3PO4. Plates were read at 450 nm (reference 570 nm) in a microplate reader (Dynatech, Alexandria, USA). The results were expressed as a percentage of the control level of cytokines production by cells stimulated in the absence of the compound.
# allergic conjunctivitis = settings: rats, administered topically into the eyes; cited from earlier work
# [4] = mice; cited from earlier work
# [5] = animal experiments; completely reversed by adding scopolamine; cited from earlier work
# [6] = system: collagen-induced arthritis; settings: rats; cited from earlier work
# Sequence of M3 muscarinic receptors (P20309 whole entry): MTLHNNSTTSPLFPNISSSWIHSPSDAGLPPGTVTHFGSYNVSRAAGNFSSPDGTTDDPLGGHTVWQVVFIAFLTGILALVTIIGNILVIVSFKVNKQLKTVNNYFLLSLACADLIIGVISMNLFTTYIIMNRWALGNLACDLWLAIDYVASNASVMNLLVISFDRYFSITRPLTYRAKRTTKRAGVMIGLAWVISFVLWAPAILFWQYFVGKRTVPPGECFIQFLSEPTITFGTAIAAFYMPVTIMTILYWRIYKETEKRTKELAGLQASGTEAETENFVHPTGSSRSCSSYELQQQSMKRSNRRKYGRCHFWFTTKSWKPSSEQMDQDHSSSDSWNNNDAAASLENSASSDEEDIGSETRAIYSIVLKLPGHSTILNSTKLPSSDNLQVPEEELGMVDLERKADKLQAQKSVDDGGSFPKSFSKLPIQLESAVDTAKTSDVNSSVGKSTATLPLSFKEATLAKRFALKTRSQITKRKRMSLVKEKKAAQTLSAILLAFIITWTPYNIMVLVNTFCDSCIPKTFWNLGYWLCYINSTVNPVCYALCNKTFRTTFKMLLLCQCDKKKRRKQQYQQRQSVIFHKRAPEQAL
structure (smiles),measurement,setting,value
"C[N+]1(C)CCC(OC(=O)C(O)(c2ccccc2)C2CCCC2)C1 (racemic) [glycopyrrolate, racemic glycopyrrolate]",dissociation from M3 muscarinic receptors,M3 muscarinic receptors,dissociates slowly
same,selectivity in binding to the M1-M3 receptors,M1-M3 receptors,no selectivity
O=C(Nc1c(Cl)cncc1Cl)C(=O)c1cn(Cc2ccc(F)cc2)c2ccc(O)cc12 [AWD 12-281],ID50 for suppression of allergen-induced airway eosinophilia,[1],7 µg/kg
same,emesis,[2],no emesis could be induced
"C[N+]1(C)CC[C@@H](OC(=O)[C@](O)(c2ccccc2)C2CCCC2)C1.[Br-] [R,R-glycopyrrolate]",influence of the single substance on LPS-induced TNFα release,"[3]; human monocytes, LPS 1 μg/ml, 24 h, concentrations up to 10 μM",did not influence
"COc1cc(C(=O)NS(=O)(=O)c2ccccc2C)ccc1Cc1cn(C)c2ccc(NC(=O)OC3CCCC3)cc12 [Zafirlukast, zafirlukast]",development of symptoms and mediator release,allergic conjunctivitis,effectively inhibit
C[C@H]1C[C@H]2[C@@H]3CCC4=CC(=O)C=C[C@]4(C)[C@@]3(Cl)[C@@H](O)C[C@]2(C)[C@@]1(O)C(=O)CO [beclomethasone],ID50 for suppression of allergen-induced airway eosinophilia,[1],0.1 µg/kg
CCCC1O[C@@H]2C[C@H]3[C@@H]4CCC5=CC(=O)C=C[C@]5(C)[C@H]4[C@@H](O)C[C@]3(C)[C@]2(C(=O)CO)O1 (stereo partly shown) [budesonide],IC50,"[3]; Monocyte, human monocytes, LPS 1 μg/ml, 24 h, read-out: IC50 for inhibition of TNFα release",0.55 ± 0.13 nM
COc1ccc(C2CNC(=O)C2)cc1OC1CCCC1 (stereo not shown) [rolipram],physiological bone formation and bone mass,[4],enhance physiological bone formation and thereby increase bone mass
same,"sedative effects (hypoactivity, decreased locomotion)",[5],induces sedative effects
same,clinical and histological severity of collagen-induced arthritis,[6],reduced the clinical and histological severity
same,IC35 for inhibition of TNFα release,[3]; IC35 determined instead of IC50 because maximum inhibition was around 70%,68.9 ± 15.2 nM
same,maximum inhibition of TNFα release,"[3]; human monocytes, LPS 1 μg/ml, 24 h",around 70%
